Data: PubChem BioAssay AID1963850 (Molecular Pharmacology Branch, DTP, NCI, 2024)

Test system: 192522-019-R-J2-PDC complex tumor spheroid viability
Assay: Anticancer human tumor 192522-019-R-J2-PDC patient-derived colon adenocarcinoma cell line growth inhibition [POLQ]
Details: for IC50: curve of first compound; for viability, T/C: stronger effect = lower value
Outline: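 PDC + HUVEC + MSC complex spheroids; POLQ inhibitors ± partner drugs; top conc. at/near clinical Cmax, else 10 microM (SN-38 1 microM), half-log dilutions; 37 degrees C, 5% CO2.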

[1] = second compound 0.0316 µM, first compound 0.0316 µM
[2] = second compound 0.0316 µM, first compound 0.1 µM
[3] = second compound 0.0316 µM, first compound 0.316 µM
[4] = second compound 0.0316 µM, first compound 1 µM
[5] = second compound 0.0316 µM, first compound 3.16 µM
[6] = second compound 0.0316 µM, first compound 10 µM
[7] = second compound 0.1 µM, first compound 0.0316 µM
[8] = second compound 0.1 µM, first compound 0.1 µM
[9] = second compound 0.1 µM, first compound 0.316 µM
[10] = second compound 0.1 µM, first compound 1 µM
[11] = second compound 0.1 µM, first compound 3.16 µM
[12] = second compound 0.1 µM, first compound 10 µM
[13] = second compound 0.316 µM, first compound 0.0316 µM
[14] = second compound 0.316 µM, first compound 0.1 µM
[15] = second compound 0.316 µM, first compound 0.316 µM
[16] = second compound 0.316 µM, first compound 1 µM
[17] = second compound 0.316 µM, first compound 3.16 µM
[18] = second compound 0.316 µM, first compound 10 µM
[19] = second compound 1 µM, first compound 0.0316 µM
[20] = second compound 1 µM, first compound 0.1 µM
[21] = second compound 1 µM, first compound 0.316 µM
[22] = second compound 1 µM, first compound 1 µM
[23] = second compound 1 µM, first compound 3.16 µM
[24] = second compound 1 µM, first compound 10 µM
[25] = second compound 3.16 µM, first compound 0.0316 µM
[26] = second compound 3.16 µM, first compound 0.1 µM
[27] = second compound 3.16 µM, first compound 0.316 µM
[28] = second compound 3.16 µM, first compound 1 µM
[29] = second compound 3.16 µM, first compound 3.16 µM
[30] = second compound 3.16 µM, first compound 10 µM
[31] = second compound 10 µM, first compound 0.0316 µM
[32] = second compound 10 µM, first compound 0.1 µM
[33] = second compound 10 µM, first compound 0.316 µM
[34] = second compound 10 µM, first compound 1 µM
[35] = second compound 10 µM, first compound 3.16 µM
[36] = second compound 10 µM, first compound 10 µM
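Further: spheroids exposed to drugs for seven days before reading.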
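Wherever viability, T/C is given: 100% = DMSO vehicle control viability in luminescence.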

C=CC(=O)N1CCN(c2nc(=O)n(-c3c(C)ccnc3C(C)C)c3nc(-c4c(O)cccc4F)c(F)cc23)C(C)C1 (stereo unspecified) + Nc1ccc(C#CCN(C(=O)Cc2ncc(C(F)(F)F)cc2C(F)(F)F)c2ccc(F)cc2)nn1
IC50 (second compound 0.0316 µM): > 10 µM
IC50 (second compound 0.1 µM): > 10 µM
IC50 (second compound 0.316 µM): > 10 µM
IC50 (second compound 1 µM): > 10 µM
IC50 (second compound 3.16 µM): > 10 µM
IC50 (second compound 10 µM): > 10 µM
viability, T/C [1]: 104%
viability, T/C [2]: 99.7%
viability, T/C [3]: 96.7%
viability, T/C [4]: 111%
viability, T/C [5]: 116%
viability, T/C [6]: 97%
viability, T/C [7]: 105%
viability, T/C [8]: 97.2%
viability, T/C [9]: 110%
viability, T/C [10]: 112%
viability, T/C [11]: 102%
viability, T/C [12]: 98.3%
viability, T/C [13]: 108%
viability, T/C [14]: 104%
viability, T/C [15]: 103%
viability, T/C [16]: 105%
viability, T/C [17]: 116%
viability, T/C [18]: 100%
viability, T/C [19]: 109%
viability, T/C [20]: 102%
viability, T/C [21]: 103%
viability, T/C [22]: 108%
viability, T/C [23]: 119%
viability, T/C [24]: 99.3%
viability, T/C [25]: 102%
viability, T/C [26]: 98.8%
viability, T/C [27]: 103%
viability, T/C [28]: 108%
viability, T/C [29]: 115%
viability, T/C [30]: 106%
viability, T/C [31]: 104%
viability, T/C [32]: 111%
viability, T/C [33]: 102%
viability, T/C [34]: 108%
viability, T/C [35]: 107%
viability, T/C [36]: 104%

CC1COCCN1c1cc(-c2ccnn2C)c2ccnc(-c3ccn[nH]3)c2n1 (stereo unspecified) + Nc1ccc(C#CCN(C(=O)Cc2ncc(C(F)(F)F)cc2C(F)(F)F)c2ccc(F)cc2)nn1
IC50 (second compound 0.0316 µM): 0.592 µM
IC50 (second compound 0.1 µM): 0.444 µM
IC50 (second compound 0.316 µM): 0.508 µM
IC50 (second compound 1 µM): 0.651 µM
IC50 (second compound 3.16 µM): 0.57 µM
IC50 (second compound 10 µM): 0.895 µM
viability, T/C [1]: 104%
viability, T/C [2]: 83.7%
viability, T/C [3]: 59.6%
viability, T/C [4]: 37%
viability, T/C [5]: 44%
viability, T/C [6]: 46.1%
viability, T/C [7]: 101%
viability, T/C [8]: 86.1%
viability, T/C [9]: 54.1%
viability, T/C [10]: 38.7%
viability, T/C [11]: 40.2%
viability, T/C [12]: 46.2%
viability, T/C [13]: 96.8%
viability, T/C [14]: 93.5%
viability, T/C [15]: 53.6%
viability, T/C [16]: 35.5%
viability, T/C [17]: 45.6%
viability, T/C [18]: 54.2%
viability, T/C [19]: 95.8%
viability, T/C [20]: 84.5%
viability, T/C [21]: 61.4%
viability, T/C [22]: 40.2%
viability, T/C [23]: 41.2%
viability, T/C [24]: 45%
viability, T/C [25]: 100%
viability, T/C [26]: 81.9%
viability, T/C [27]: 59.6%
viability, T/C [28]: 36.5%
viability, T/C [29]: 42%
viability, T/C [30]: 47.1%
viability, T/C [31]: 97.8%
viability, T/C [32]: 85.9%
viability, T/C [33]: 63.9%
viability, T/C [34]: 43.5%
viability, T/C [35]: 46.3%
viability, T/C [36]: 50.8%

CC1COCCN1c1cc(C2(S(C)(=N)=O)CC2)nc(-c2ccnc3[nH]ccc23)n1 (stereo unspecified) + Nc1ccc(C#CCN(C(=O)Cc2ncc(C(F)(F)F)cc2C(F)(F)F)c2ccc(F)cc2)nn1
IC50 (second compound 0.0316 µM): 5.87 µM
IC50 (second compound 0.1 µM): 6.81 µM
IC50 (second compound 0.316 µM): 6 µM
IC50 (second compound 1 µM): 7 µM
IC50 (second compound 3.16 µM): 6.4 µM
IC50 (second compound 10 µM): 7.13 µM
viability, T/C [1]: 101%
viability, T/C [2]: 90.6%
viability, T/C [3]: 102%
viability, T/C [4]: 93.7%
viability, T/C [5]: 68%
viability, T/C [6]: 34.5%
viability, T/C [7]: 106%
viability, T/C [8]: 98.6%
viability, T/C [9]: 102%
viability, T/C [10]: 100%
viability, T/C [11]: 69.6%
viability, T/C [12]: 40.1%
viability, T/C [13]: 114%
viability, T/C [14]: 100%
viability, T/C [15]: 99.4%
viability, T/C [16]: 90%
viability, T/C [17]: 67.9%
viability, T/C [18]: 35.5%
viability, T/C [19]: 103%
viability, T/C [20]: 108%
viability, T/C [21]: 100%
viability, T/C [22]: 96%
viability, T/C [23]: 77%
viability, T/C [24]: 37.8%
viability, T/C [25]: 99.2%
viability, T/C [26]: 100%
viability, T/C [27]: 101%
viability, T/C [28]: 100%
viability, T/C [29]: 68%
viability, T/C [30]: 38.5%
viability, T/C [31]: 102%
viability, T/C [32]: 101%
viability, T/C [33]: 102%
viability, T/C [34]: 105%
viability, T/C [35]: 72.7%
viability, T/C [36]: 40.5%
